In test [1] the test system is T-type calcium ion channels. Put plainly: T-type calcium ion channel inhibition, whole cell patch-clamp (electrophysiological method). The note with it: cerebral cortex nerve cells of suckling mice, room temperature. The format is cell-based. The text has this:
(§1) 2. Test for L- and T-Type Calcium Ion Channel Inhibitors
(§2) This experiment was assigned to HD Biosciences Corporation (Shanghai) and conducted with an electrophysiological method.
It was done with reference to the method as disclosed by Jung-Ha Lee, et. al., “Identification of T-Type α1H Ca^2+ Channels (Cav3.2) in Major Pelvic Ganglion Neurons”.
(§3) Test samples were weighed accurately and diluted in a 3-fold stepwise dilution so that the final concentrations were as follows:
T-type test: Cerebral cortex nerve cells were separated from suckling mice, and used in the experiment after 7 days of cultivation. The ionic current of a single cell was recorded by applying the whole cell patch-clamp technique at room temperature, wherein the clamp current was −90 mV, and the pulse interval was 10 s. The inward current (the activiation was started from −20 mV) is the T-type calcium current (ICa,T).
(§4) The electrode inner liquid (mM): CsCl 120, TEA-Cl 20, CaCl2 1, EGTA-CsOH 11, Hepes 10, Mg-ATP 5, pH7.3;
(Patch clamp records ionic current or voltage across a cell membrane.)

A further test has as its system SHRs. In words: In vivo hypotensive activity in SHRs, DSI implant-type remote blood pressure measurement. On the set-up: species or system rats. As to conditions: male SHRs, 10 mg/kg po, monitored 24 hours. The procedure: The in vivo hypotensive activity assay was conducted according to DSI experimental procedure with reference to page 56 of WO 2009/056934 A1. The agents to be tested, lercanidipine, barnidipine, amlodipine, azelnidipine, efonidipine and manidipine, were accurately weighed. Each agent was dissolved in DMSO. To the resulting solution was added 50% of the corresponding volume of PEG400 so that the final concentration of each agent was 1 mg/ml, and the final concentration of DMSO was 3%. […] Each compound was dissolved in DMSO. […] The compound to be tested, Compound 15, was accurately weighed. This compound was dissolved in DMSO. […] The compound to be tested, Compound 16 (optical activity)+108.34° and Compound 17 (optical activity optical activity)+36.4°, were accurately weighed. […] The test for hypotensive effect: Male SHRs were subjected to an abdominal aorta implantation using an implant, and used in the test after 7-10 days of recovery. The administration was an intragastric administration. One hour before the administration, the measured blood pressure was used as the pre-administration basic blood pressure value. After the administration, SHRs, allowed free access to the diet, were continuously monitored with a DSI implant-type blood pressure remote measurement system for 24 hours.

The test system of test [2] is SHRs (spontaneous hypertensive rats). In words: In vivo hypotensive activity in SHRs, tail-pinch method. The note with it: male SHRs, 10 mg/kg po; for Max ΔMAP (mmHg ± SEM): measured 1-24 h after administration. The method, then:
The in vivo hypotensive activity assay was conducted according to the tail-pinch method with reference to Folia pharmacol. Japon. 97, 115-126 (1991).
The agents to be tested, lercanidipine, barnidipine, amlodipine, azelnidipine, efonidipine and manidipine, were accurately weighed respectively. Each agent was dissolved in DMSO. To the resulting solution was added 50% of the corresponding volume of PEG400 so that the final concentration of each agent was 1 mg/ml, and the final concentration of DMSO was 3%.
The compounds to be tested, Compound 18, Compound 21, Compound 22, Compound 23, and Compound 26, were accurately weighed respectively. Each compound was dissolved in DMSO. To the resulting solution was added 50% of the corresponding volume of PEG400 so that the final concentration of each compound was 1 mg/ml, and the final concentration of DMSO was 3%.
The compounds to be tested, Compound 19 and Compound 20, were accurately weighed respectively. Each compound was suspended in 0.5% MC so that the final concentration of each compound was 1 mg/ml.
The test for hypotensive effect: Male SHRs (spontaneous hypertensive rats) were randomly allocated into a control group and an administration group. The administration was an intragastric administration. One hour before the administration, the measured blood pressure was used as the pre-administration basic blood pressure value. After the administration, the contractive pressure, the heart rate and the mean arterial pressure of SHRs at six time points, i.e. 1, 2, 4, 6, 8 and 24 hours after the administration, were measured with a Softron BP-98A non-invasive blood pressure instrument respectively.

For test [3], the target named is L-type calcium ion channels (Cavia porcellus, UniProt O35505). Put plainly: L-type calcium ion channel inhibition, whole cell patch-clamp (electrophysiological method). It counts as cell-based. As to conditions: left ventricle muscle cells of guinea pigs, room temperature.
Excerpt: as §1, §2
It was done with reference to the method as disclosed by Jung-Ha Lee, et. al., “Identification of T-Type α1H Ca^2+ Channels (Cav3.2) in Major Pelvic Ganglion Neurons”. J Neurophysiol 87:2844-2850, 2002.
as §3
L-type test: Left ventricle muscle cells were separated from guinea pigs. The cells were used in the experiment in eight hours. The ionic current of a single cell was recorded by applying the whole cell patch-clamp technique at room temperature, wherein the clamp current was −80 mV, and the pulse interval was 10 s. The inward current (the activiation was started from 0 mV) is the L-type calcium current (ICa,L).
as §4
The electrode outer liquid (mM): NaCl 135, CsCl 5.4, CaCl2 1.8, MgCl2 1, Hepes 5, glucose 10, pH7.4.

The target of the next test is Human Cav3.2 (Homo sapiens, UniProt O95180). In words: T-type calcium ion channel inhibition, FLIPR method. It counts as cell-based. The note with it: Human Cav3.2 in stable HEK-293 cells, FLIPR Calcium 4 No-Wash kit. The procedure: T-type tests for Compound 19 and Compound 20 were assigned to Chan Test Corporation, and conducted according to the FLIPR experimental procedure as follows.
It was done with reference to the method disclosed on page 48 of WO 2009/056934 A1.
Samples were weighed accurately and diluted in a 3-fold stepwise dilution so that the final concentrations were as follows: 100 μM, 30 μM, 10 μM, 3 μM, 1 μM, 0.3 μM, 0.1 μM, 0.03 μM, 0.01 μM, 0.003 μM.
T-type test: Human Cav3.2 was cloned in stable HEK-293 cells, and then the operation was conducted with FLIPR Calcium 4 No-Wash kit. The cell medium was removed. To an HEPES solution free of calcium ion was added 20 μL dye to dye for 30 minutes at a temperature of 37° C. This buffer free of calcium ion included NaCl, 137 mM; KCl, 0.5 mM; MgCl2 mM, 1 mM; HEPES, 10 mM; glucose, 10 mM. The pH value was adjusted to 7.4 with NaOH. After 30 minutes, the buffer was placed at room temperature for 30 minutes. Then 5 μL of compound to be tested, solvent or blank control were added. The compound was formulated with a buffer containing calcium ion, said buffer including KCl, 135 mM; CaCl2, 10.8 mM; MgCl2, 1 mM; HEPES, 10 mM; glucose, 10 mM. The collected fluorescence values were analyzed and the inhibition ratios were calculated.

Broadly, the IC50 is the midpoint of a concentration-inhibition curve.

Structures can show the parent of a compound that is named as a salt.

Sequence of L-type calcium ion channels (O35505 whole entry): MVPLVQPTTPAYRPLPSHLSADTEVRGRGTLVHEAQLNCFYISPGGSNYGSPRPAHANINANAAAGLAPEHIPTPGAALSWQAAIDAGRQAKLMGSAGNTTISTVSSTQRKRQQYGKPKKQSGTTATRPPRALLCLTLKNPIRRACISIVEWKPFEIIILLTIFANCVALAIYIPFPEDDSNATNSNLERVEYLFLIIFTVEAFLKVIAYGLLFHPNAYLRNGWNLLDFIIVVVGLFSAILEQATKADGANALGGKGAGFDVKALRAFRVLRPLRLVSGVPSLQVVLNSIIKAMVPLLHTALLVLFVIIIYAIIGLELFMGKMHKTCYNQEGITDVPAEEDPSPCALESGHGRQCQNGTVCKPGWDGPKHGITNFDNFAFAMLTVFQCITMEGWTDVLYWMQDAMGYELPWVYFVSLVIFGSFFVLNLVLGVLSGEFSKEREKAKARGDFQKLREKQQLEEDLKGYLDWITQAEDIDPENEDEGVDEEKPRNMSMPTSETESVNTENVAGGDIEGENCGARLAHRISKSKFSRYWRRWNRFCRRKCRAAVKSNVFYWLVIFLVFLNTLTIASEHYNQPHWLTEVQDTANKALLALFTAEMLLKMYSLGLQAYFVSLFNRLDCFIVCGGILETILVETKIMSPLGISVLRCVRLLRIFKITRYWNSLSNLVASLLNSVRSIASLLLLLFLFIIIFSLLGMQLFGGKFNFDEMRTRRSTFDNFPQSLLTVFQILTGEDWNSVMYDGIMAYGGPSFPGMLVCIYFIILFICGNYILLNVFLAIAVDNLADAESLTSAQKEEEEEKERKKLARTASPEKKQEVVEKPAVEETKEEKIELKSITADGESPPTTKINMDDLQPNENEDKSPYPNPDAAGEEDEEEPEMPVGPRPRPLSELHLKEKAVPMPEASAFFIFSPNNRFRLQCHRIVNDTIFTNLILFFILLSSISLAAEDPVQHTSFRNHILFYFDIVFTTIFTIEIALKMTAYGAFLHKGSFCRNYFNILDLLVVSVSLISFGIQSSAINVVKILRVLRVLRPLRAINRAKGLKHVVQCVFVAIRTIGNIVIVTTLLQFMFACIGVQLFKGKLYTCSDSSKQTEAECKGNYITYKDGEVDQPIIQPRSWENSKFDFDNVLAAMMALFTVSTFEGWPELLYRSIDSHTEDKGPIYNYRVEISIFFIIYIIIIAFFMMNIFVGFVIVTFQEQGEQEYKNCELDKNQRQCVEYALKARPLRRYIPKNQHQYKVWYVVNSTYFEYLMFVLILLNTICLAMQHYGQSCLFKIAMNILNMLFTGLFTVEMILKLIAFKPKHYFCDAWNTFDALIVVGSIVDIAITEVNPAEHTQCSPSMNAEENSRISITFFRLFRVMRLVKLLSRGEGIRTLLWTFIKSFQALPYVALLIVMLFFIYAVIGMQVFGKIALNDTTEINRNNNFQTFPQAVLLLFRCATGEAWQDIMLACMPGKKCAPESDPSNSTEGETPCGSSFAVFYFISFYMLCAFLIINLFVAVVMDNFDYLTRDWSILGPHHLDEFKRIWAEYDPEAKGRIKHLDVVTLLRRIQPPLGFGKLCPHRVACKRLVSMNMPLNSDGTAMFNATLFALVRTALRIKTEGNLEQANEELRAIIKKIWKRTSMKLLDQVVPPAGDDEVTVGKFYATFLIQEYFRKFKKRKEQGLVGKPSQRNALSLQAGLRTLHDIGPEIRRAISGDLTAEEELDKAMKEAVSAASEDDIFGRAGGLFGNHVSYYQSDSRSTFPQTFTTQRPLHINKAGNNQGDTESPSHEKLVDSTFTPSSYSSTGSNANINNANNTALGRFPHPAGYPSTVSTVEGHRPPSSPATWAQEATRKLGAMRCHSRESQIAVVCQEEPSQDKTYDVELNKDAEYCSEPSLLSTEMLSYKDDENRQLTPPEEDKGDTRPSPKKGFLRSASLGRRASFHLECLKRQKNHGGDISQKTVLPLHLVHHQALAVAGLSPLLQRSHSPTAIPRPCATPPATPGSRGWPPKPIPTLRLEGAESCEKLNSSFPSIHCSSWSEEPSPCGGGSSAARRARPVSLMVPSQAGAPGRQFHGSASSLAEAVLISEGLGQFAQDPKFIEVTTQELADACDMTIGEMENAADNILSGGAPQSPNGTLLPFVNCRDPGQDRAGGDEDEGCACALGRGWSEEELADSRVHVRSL
Sequence of Human Cav3.2 (O95180 whole entry): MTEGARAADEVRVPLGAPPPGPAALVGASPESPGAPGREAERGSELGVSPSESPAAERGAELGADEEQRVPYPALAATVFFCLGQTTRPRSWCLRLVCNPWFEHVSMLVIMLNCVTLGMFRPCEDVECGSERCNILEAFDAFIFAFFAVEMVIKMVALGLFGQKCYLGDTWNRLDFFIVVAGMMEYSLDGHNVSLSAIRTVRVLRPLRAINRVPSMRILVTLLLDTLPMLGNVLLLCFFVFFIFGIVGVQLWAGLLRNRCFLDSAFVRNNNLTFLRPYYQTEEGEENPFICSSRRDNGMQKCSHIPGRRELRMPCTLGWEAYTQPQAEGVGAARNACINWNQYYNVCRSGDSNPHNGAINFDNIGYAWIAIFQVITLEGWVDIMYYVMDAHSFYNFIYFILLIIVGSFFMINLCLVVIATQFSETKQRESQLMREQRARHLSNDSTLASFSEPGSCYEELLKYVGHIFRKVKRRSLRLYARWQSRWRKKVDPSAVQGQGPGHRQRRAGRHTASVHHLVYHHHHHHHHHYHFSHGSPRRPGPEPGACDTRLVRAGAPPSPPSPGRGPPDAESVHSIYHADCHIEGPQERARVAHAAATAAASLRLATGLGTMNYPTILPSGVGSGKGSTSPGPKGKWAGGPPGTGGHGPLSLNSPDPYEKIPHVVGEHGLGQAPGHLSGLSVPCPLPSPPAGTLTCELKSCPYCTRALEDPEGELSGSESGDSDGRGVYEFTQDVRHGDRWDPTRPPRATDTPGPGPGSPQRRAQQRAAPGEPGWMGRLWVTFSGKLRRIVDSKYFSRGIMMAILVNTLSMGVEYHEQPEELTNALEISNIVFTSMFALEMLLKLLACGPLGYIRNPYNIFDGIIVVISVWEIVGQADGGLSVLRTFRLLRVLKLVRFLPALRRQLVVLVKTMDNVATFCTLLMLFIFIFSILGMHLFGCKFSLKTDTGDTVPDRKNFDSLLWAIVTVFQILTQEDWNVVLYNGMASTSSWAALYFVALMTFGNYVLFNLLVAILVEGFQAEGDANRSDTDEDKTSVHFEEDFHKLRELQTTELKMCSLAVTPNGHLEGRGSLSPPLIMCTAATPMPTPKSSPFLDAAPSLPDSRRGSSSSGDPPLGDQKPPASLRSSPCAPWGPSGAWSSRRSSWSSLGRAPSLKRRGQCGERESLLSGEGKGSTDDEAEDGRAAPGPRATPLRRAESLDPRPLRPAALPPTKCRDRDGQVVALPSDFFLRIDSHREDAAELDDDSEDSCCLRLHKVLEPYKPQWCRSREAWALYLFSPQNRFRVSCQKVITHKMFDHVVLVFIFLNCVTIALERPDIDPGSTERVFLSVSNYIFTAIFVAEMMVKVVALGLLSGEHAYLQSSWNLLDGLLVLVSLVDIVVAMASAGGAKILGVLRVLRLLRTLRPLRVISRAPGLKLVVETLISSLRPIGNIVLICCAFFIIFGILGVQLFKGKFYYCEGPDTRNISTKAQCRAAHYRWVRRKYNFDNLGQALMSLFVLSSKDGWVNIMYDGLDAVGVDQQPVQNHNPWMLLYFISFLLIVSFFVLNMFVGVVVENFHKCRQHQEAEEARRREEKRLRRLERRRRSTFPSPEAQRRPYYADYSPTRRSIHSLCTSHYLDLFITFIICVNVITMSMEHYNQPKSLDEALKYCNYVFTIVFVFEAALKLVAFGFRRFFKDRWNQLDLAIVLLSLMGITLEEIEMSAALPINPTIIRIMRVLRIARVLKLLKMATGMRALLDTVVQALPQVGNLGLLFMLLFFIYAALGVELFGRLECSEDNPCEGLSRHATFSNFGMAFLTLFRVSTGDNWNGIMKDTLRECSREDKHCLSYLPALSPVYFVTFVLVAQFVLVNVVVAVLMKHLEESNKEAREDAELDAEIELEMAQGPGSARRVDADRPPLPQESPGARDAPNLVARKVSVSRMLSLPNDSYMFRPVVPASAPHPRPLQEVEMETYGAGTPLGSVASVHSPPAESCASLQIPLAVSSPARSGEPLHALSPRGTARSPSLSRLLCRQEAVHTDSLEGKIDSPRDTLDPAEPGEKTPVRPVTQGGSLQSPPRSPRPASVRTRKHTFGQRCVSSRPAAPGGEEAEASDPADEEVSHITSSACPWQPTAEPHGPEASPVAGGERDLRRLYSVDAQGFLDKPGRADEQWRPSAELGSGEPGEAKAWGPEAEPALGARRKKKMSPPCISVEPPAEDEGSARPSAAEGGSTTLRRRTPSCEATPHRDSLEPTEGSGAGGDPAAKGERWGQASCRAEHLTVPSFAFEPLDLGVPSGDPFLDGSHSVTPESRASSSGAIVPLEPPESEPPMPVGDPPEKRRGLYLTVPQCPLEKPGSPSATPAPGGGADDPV

`COC(=O)C1=C(C)NC(C)=C(C(=O)OC2(C)CCN(Cc3ccccc3)C2)C1c1cccc([N+](=O)[O-])c1` (stereo not drawn) [Compound 1 hydrochloride, 3-(1-benzyl-3-methylpyrrolidin-3-yl) 5-methyl 2,6-dimethyl-4-(3-nitrophenyl)-1,4-dihydropyridine-3,5-dicarboxylate]: the concentration for half-maximal inhibition (IC50) in test [1] was 4.47 µM.
Consider `COC(=O)C1=C(C)NC(C)=C(C(=O)OC(C)(C)CN(C)CCC(c2ccccc2)c2ccccc2)C1c1cccc([N+](=O)[O-])c1` (stereo not drawn) [lercanidipine, reference compound], for which the “Max ΔMAP (mmHg ± SEM)” value is 54 ± 7 mmHg with SHRs and 77 ± 15 mmHg in test [2]. Also, the “ΔMAP > 20 (mmHg) Duration time of action” value was 14 h in the test on SHRs and 23 h in test [2]. The results for the half-inhibitory concentration (IC50) in test [3] and in test [1] were 0.84 µM and > 10 µM, respectively.
Regarding `COC(=O)C1=C(C)NC(C)=C(C(=O)O[C@@]2(C)CCN(CCC(c3ccccc3)c3ccccc3)C2)[C@H]1c1cccc([N+](=O)[O-])c1` [Compound 16, (S)-3-[(S)-1-(3,3-diphenylpropyl)-3-methylpyrrolidin-3-yl] 5-methyl 2,6-dimethyl-4-(3-nitrophenyl)-1,4-dihydropyridine-3,5-dicarboxylate], the “Max ΔMAP (mmHg ± SEM)” value with SHRs is reported as 57 ± 5 mmHg. In addition, the “ΔMAP > 20 (mmHg) Duration time of action” value with SHRs is 11 h. In addition, the IC50 at Human Cav3.2 was 1.95 µM; in test [3] it was 0.59 µM; in test [1] it was 2.28 µM.
Take `CCOC(=O)C1=C(COCCN)NC(C)=C(C(=O)OC)C1c1ccccc1Cl` (stereo not drawn) [amlodipine, reference compound]: the “Max ΔMAP (mmHg ± SEM)” value in the test on SHRs came out at 48 ± 13 mmHg; in test [2] it was 74 ± 8 mmHg. Besides, the “ΔMAP > 20 (mmHg) Duration time of action” value in the test with SHRs was determined as 16 h; in test [2], 24 h. The 50% inhibitory concentration (IC50) on Human Cav3.2 is > 100 µM; in test [3], 1.11 µM.
`COC(=O)C1=C(C)NC(C)=C(C(=O)OC2(C)CCN(CCC(c3ccccc3)c3ccccc3)C2)C1c1cccc([N+](=O)[O-])c1` (stereo not drawn) [Compound 2 hydrochloride, 3-[1-(3,3-diphenylpropyl)-3-methylpyrrolidin-3-yl]5-methyl 2,6-dimethyl-4-(3-nitrophenyl)-1,4-dihydropyridine-3,5-dicarboxylate]: in test [1], the IC50 came to 3.2 µM.
For the compound `COC(=O)C1=C(C)NC(C)=C(C(=O)O[C@]2(C)CCN(CCC(c3ccccc3)c3ccccc3)C2)[C@H]1c1cccc([N+](=O)[O-])c1` [Compound 17, (S)-3-[(R)-1-(3,3-diphenylpropyl)-3-methylpyrrolidin-3-yl] 5-methyl 2,6-dimethyl-4-(3-nitrophenyl)-1,4-dihydropyridine-3,5-dicarboxylate], in the test with SHRs, the “Max ΔMAP (mmHg ± SEM)” value turned out to be 57 ± 5 mmHg and the “ΔMAP > 20 (mmHg) Duration time of action” value stood at 16 h. For the same compound, the IC50 on Human Cav3.2 is 9.41 µM. Further, in test [3], the half-inhibitory concentration (IC50) was found to be 0.93 µM.
Regarding `COC(=O)C1=C(C)NC(C)=C(C(=O)O[C@H]2CCN(Cc3ccccc3)C2)[C@H]1c1cccc([N+](=O)[O-])c1` [barnidipine, reference compound], the results for the “Max ΔMAP (mmHg ± SEM)” value (with SHRs; in test [2]) were 60 ± 6 mmHg and 81 ± 10 mmHg, respectively. Also, the “ΔMAP > 20 (mmHg) Duration time of action” value with SHRs came out at 9 h; in test [2], 14 h. Further, the concentration for half-maximal inhibition (IC50) at Human Cav3.2 was 30.8 µM; in test [3], 0.58 µM; in test [1], 8.15 µM.

The values above are taken from patent US9198902B2, “1,4-dihydropyridine-3,5-dicarboxylate derivatives and preparation and use thereof” (Xuanzhu Pharma Co., Ltd., priority 2011, dated 2015).
